System: Mouse colon cancer CT26 cells
Test: Induction of immunogenic cell death targets by Crizotinib and IN10018 in CT26 cells (Example 7)
Format: cell-based
Details: CT26, 48 hours; IN10018 5 μM, Crizotinib 3 μM
Protocol: CT26 cells were cultured in monolayer in vitro, and the culture conditions were: RPMI-1640 medium with 10% fetal bovine serum, 37° C. and 5% CO2. Trypsin was used for routine digestion and passage treatment two or three times a week. When the cells were in exponential growth period and the adherent confluence reached 80%-90%, the cells were collected and plated.
CT26 cells were digested with trypsin, then collected and counted. According to the counting results, the cells were diluted with RPMI-1640+10% FBS, and the dilution concentration was 50,000 cells per ml. Then, the cells were plated on 24-well culture plates, and 1 ml of cell suspension (50,000 cells) was laid in each well. After plating, the cells were cultured in 37° C. and 5% CO2 incubator. […]
After the cells were washed twice with flow buffer (DPBS+2% FBS), the cells in each group were divided into two parts on average, one of which was added with 0.5 μl of AF647 anti-Calreticulin antibody in each well, then mixed well, and incubated in the dark for 20 minutes at 4° C. […] The cells were cultured at room temperature in the dark for 15 minutes, and then analyzed by flow cytometry.
Data analysis: After the assay, the cell positive rate was analyzed by Flowjo(V10) software.

SMILES: COc1cc(C(=O)NC2CCN(C)CC2)c(F)cc1Nc1ncc(C(F)(F)F)c(Oc2cccc3c2C(=O)N(C)C3)n1 [IN10018]
- cell state under a microscope (cell death; cell viability): better

Source: patent US20240285627A1, “DRUG COMBINATION OF FAK INHIBITOR AND IMMUNOGENIC CELL DEATH INDUCER AND USE THEREOF” (INXMED (NANJING) CO., LTD., priority 2022, published 2024)
